Laboratory results taken from article PMC9863987, “Identification of Aryl Polyamines Derivatives as Anti-Trypanosoma cruzi Agents Targeting Iron Superoxide Dismutase” (Pharmaceutics, 2022).
Structures can show the parent of a compound that is named as a salt.

Assays:
[1] = system: T. cruzi Arequipa strain epimastigotes; experiment: Screening against extracellular epimastigotes, Arequipa strain (resazurin); type: cell-based, Trypanosoma cruzi; details: for IC50: Trypanosoma cruzi, epimastigotes, 48 h treatment + 24 h resazurin, mean of three ± SD, read-out: Activity IC50 T. cruzi Arequipa Strain E; for Selectivity Index T. cruzi Arequipa Strain E: IC50 Vero cells/IC50 epimastigotes
Experimental: (§1) Three different T. cruzi […] strains—MHOM/Pe/2011/Arequipa, discrete typing unit (DTU) V [26]; IRHOD/CO/2008/SN3, DTU I [27]; TINF/CH/1956/Tulahuen, DTU VI [26]—were grown at 28 °C in Gibco® RPMI 1640 Medium supplemented as previously reported, and used for in vitro screening.
(§2) Trypanocidal activity against epimastigotes was tested as previously reported. In brief, 5 × 10^5 mL^−1 epimastigotes culture medium were treated by adding the compounds in serial dilutions from 100 to 0.2 µM in 96-well plates (200 µL·well^−1) for 48 h. BZN and untreated growth control were also included in triplicate. Later, 20 μL of resazurin sodium salt (Sigma-Aldrich, St. Louis, MO, USA) was added, and the plates were incubated for another 24 h. Finally, the absorbance of the wells was measured at 570/600 nm and related to the control. The trypanocidal activity was expressed as the IC50 (inhibitory concentration 50) value using GraphPad Prism 6 software.

[2] = system: T. cruzi SN3 strain epimastigotes; experiment: Screening against extracellular epimastigotes, SN3 strain (resazurin); type: cell-based, Trypanosoma cruzi; details: for IC50: Trypanosoma cruzi, epimastigotes, 48 h treatment + 24 h resazurin, mean of three ± SD, read-out: Activity IC50 T. cruzi SN3 Strain E; for Selectivity Index T. cruzi SN3 Strain E: IC50 Vero cells/IC50 epimastigotes
Experimental: as §1, §2

[3] = system: T. cruzi Tulahuen strain epimastigotes; experiment: Screening against extracellular epimastigotes, Tulahuen strain (resazurin); type: cell-based, Trypanosoma cruzi; details: for IC50: Trypanosoma cruzi, TULAHUEN, epimastigotes, 48 h treatment + 24 h resazurin, mean of three ± SD, read-out: Activity IC50 T. cruzi Tulahuen Strain E; for Selectivity Index T. cruzi Tulahuen Strain E: IC50 Vero cells/IC50 epimastigotes
Experimental: as §1, §2

[4] = system: Vero cells; experiment: Cytotoxicity test on mammalian Vero cells (resazurin); type: cell-based; details: Chlorocebus sabaeus, 48 h treatment + 24 h resazurin, mean of three ± SD, read-out: Toxicity IC50 Vero Cell
Experimental: Cytotoxicity against mammalian Vero cells (EACC No. 84113001) was tested as previously reported. In brief, 1.25 × 10^4 Vero cells·mL^−1, cultured at 37 °C, were treated by adding the compounds in serial dilutions from 400 to 1 µM in 96-well plates (200 µL·well^−1) for 48 h. BZN and untreated controls were also included in triplicate. Later, 20 μL of resazurin sodium salt (Sigma-Aldrich) was added, and the plates were incubated for another 24 h. Finally, cell viability was determined following the same procedure as described to assess the trypanocidal activity in the epimastigotes.

[5] = system: T. cruzi Arequipa strain amastigotes; experiment: Screening against intracellular amastigotes in Vero cells, Arequipa strain (Giemsa counting); type: cell-based, Trypanosoma cruzi
Experimental: (§3) TINF/CH/1956/Tulahuen, DTU VI [26]—were grown at 28 °C in Gibco® RPMI 1640 Medium supplemented as previously reported, and used for in vitro screening. Trypanocidal activity against amastigotes was tested as previously reported. In brief, bloodstream trypomastigotes (BTs), obtained by cardiac puncture from infected BALB/c mice, were used to infect 1 × 10^4 Vero cells·well^−1 in 24-well plates with rounded coverslips at a multiplicity of infection (MOI) ratio of 10:1. After 24 h of infection, non-internalized trypomastigotes were washed and the infected cells were treated by adding the compounds in serial dilutions from 50 to 0.5 µM in […] for 72 h. BZN and untreated growth controls were also included in triplicate. Later, the number of amastigotes and infected cells were determined in Giemsa stained preparations by analysing 500 host cells randomly distributed in microscopic fields. The trypanocidal activity was expressed as the IC50 using GraphPad Prism 6 software (version 6.07).

[6] = system: T. cruzi Arequipa strain trypomastigotes; experiment: Screening against bloodstream trypomastigotes, Arequipa strain (resazurin); type: cell-based, Trypanosoma cruzi
[7] = system: T. cruzi Tulahuen strain amastigotes; experiment: Screening against intracellular amastigotes in Vero cells, Tulahuen strain (Giemsa counting); type: cell-based, Trypanosoma cruzi
Experimental: as §3

[8] = system: T. cruzi Tulahuen strain trypomastigotes; experiment: Screening against bloodstream trypomastigotes, Tulahuen strain (resazurin); type: cell-based, Trypanosoma cruzi
[9] = IC50 Vero cells/IC50 amastigotes
[10] = IC50 Vero cells/IC50 trypomastigotes

Row | Compound | IC50 [1] [µM] | IC50 [2] [µM] | IC50 [3] [µM] | CC50 [4] [µM] | other results
1 | c1ccc(CNCCN(CCNCc2ccccn2)Cc2ccc3ccccc3c2)nc1 [Compound 1] | 28.3 ± 2.4 | 27.1 ± 2.1 | 26 ± 2.7 | 58.1 ± 6 | –
2 | c1cncc(CNCCN(CCNCc2cccnc2)Cc2ccc3ccccc3c2)c1 [Compound 2] | 2.9 ± 0.3 | 5.7 ± 0.5 | 15.8 ± 1.4 | 38.5 ± 4.1 | Selectivity Index T. cruzi Arequipa Strain E [1]: 13.5; Selectivity Index T. cruzi Arequipa Strain A [5, 9]: 6.2; IC50 ([5]; Trypanosoma cruzi, amastigotes in Vero cells, 72 h, mean of three ± SD): 6.2 ± 0.6 µM; Selectivity Index T. cruzi Arequipa Strain T [6, 10]: 8.0; IC50 ([6]; Trypanosoma cruzi, trypomastigotes, 24 h + 4 h resazurin, mean of three ± SD): 4.8 ± 0.5 µM; Selectivity Index T. cruzi SN3 Strain E [2]: 6.7; Selectivity Index T. cruzi Tulahuen Strain E [3]: 2.4
3 | c1ccc2cc(CN(CCNCc3ccncc3)CCNCc3ccncc3)ccc2c1 [Compound 3] | 18.7 ± 1.6 | 21.8 ± 1.9 | 19.2 ± 1.7 | 25.8 ± 2.7 | –
4 | c1ccc2cc(CN(CCNCc3ccnc4ccccc34)CCNCc3ccnc4ccccc34)ccc2c1 [Compound 4, 1,7-Bis(4-quinolylmethyl)-4-(2-naphthylmethyl)-1,4,7-triazaheptane Pentahydrochloride] | 25.2 ± 2.7 | 11 ± 1 | 22.6 ± 3.3 | 5.3 ± 0.4 | –
5 | O=C(NCCN(CCNC(=O)c1ccccn1)Cc1ccc2ccccc2c1)c1ccccn1 [Compound 6] | 12 ± 1.1 | 10 ± 1.2 | 16.1 ± 1.7 | 63.2 ± 5.7 | –
6 | CN(C)c1cccc2c(S(=O)(=O)N(CCNCc3ccccn3)CCNCc3ccccn3)cccc12 [Compound 7] | 11.5 ± 1.1 | 10.4 ± 1.1 | 12.1 ± 1.1 | 41.3 ± 3.7 | –
7 | CN(C)c1cccc2c(S(=O)(=O)N(CCNCc3cccnc3)CCNCc3cccnc3)cccc12 [Compound 8] | 48.1 ± 3.9 | 36.4 ± 3.4 | 10 ± 1.1 | 136 ± 14.8 | Selectivity Index T. cruzi Arequipa Strain E [1]: 2.8; Selectivity Index T. cruzi SN3 Strain E [2]: 3.7; Selectivity Index T. cruzi Tulahuen Strain E [3]: 13.7; Selectivity Index T. cruzi Tulahuen Strain A [7, 9]: 8.0; IC50 ([7]; Trypanosoma cruzi, TULAHUEN, amastigotes in Vero cells, 72 h, mean of three ± SD): 17 ± 1.5 µM; Selectivity Index T. cruzi Tulahuen Strain T [8, 10]: 11.2; IC50 ([8]; Trypanosoma cruzi, TULAHUEN, trypomastigotes, 24 h + 4 h resazurin, mean of three ± SD): 12.2 ± 1.2 µM
8 | CN(C)c1cccc2c(S(=O)(=O)N(CCNC(=O)c3ccccn3)CCNC(=O)c3ccccn3)cccc12 [Compound 9] | 12.4 ± 1.2 | 59.6 ± 6.2 | 39.3 ± 4.2 | 49.3 ± 5 | –
9 | O=S(=O)(c1cccc2ccccc12)N(CCNCc1ccccn1)CCNCc1ccccn1 [Compound 10] | 15.2 ± 1.8 | 14.3 ± 1.8 | 12.9 ± 1.8 | 14.9 ± 1.3 | –
10 | CN(CCNCc1ccccn1)CCNCc1ccccn1 [Compound 11] | 12.8 ± 1.7 | 21.4 ± 2 | 30 ± 2.7 | 23.3 ± 2.1 | –

More lines, main results first:

Row | IC50 [1] [µM] | IC50 [2] [µM] | IC50 [3] [µM] | Compound | CC50 [4] [µM] | other results
11 | 104 ± 12.8 | 87.5 ± 9 | 95.2 ± 8.4 | CN(CCNCc1ccncc1)CCNCc1ccncc1 [Compound 12] | 188 ± 20.4 | –
12 | 12.7 ± 1.4 | 5.5 ± 4.9 | 21 ± 1.8 | O=S(=O)(c1cccc2cccnc12)N(CCNCc1ccccn1)CCNCc1ccccn1 [Compound 13] | 28.3 ± 2.4 | –
13 | 18.3 ± 1.4 | 25.8 ± 2.7 | 22.4 ± 2.1 | c1cc2nc(c1)CNCCN(CCNCc1ccc3[nH]ncc3c1)CCNC2 [Compound 14] | 60.3 ± 7 | –
14 | 102 ± 9.8 | 155 ± 14.9 | 129 ± 14.7 | c1cc(CNCCN2CCNCc3cccc(n3)CNCC2)nc(CNCCN2CCNCc3cccc(n3)CNCC2)c1 [Compound 16] | 136 ± 14.7 | –
